The values below come from patent US11453666B2, “Autotaxin inhibitory compounds” (Cancer Research Technology Limited, priority 2015, dated 2022).

For the assay, the target named is human recombinant ATX (Homo sapiens, UniProt Q13822). Put plainly: Autotaxin (ATX) activity Quanta Red assay. Type of assay: biochemical. The following applies: read-out: Activity (ATX activity, Quanta Red assay; IC50). The protocol:
The reaction was stopped after 2 hours with a 20 μL addition of Quanta Red Stop solution (1:20 dilution in distilled water). The above-described mixture with DMSO alone was used as a positive control whereas that with DMSO alone without ATX was taken as a negative control.
Fluorescence was determined in a BMG Labtech Pherastar plus plate reader ([…]). Data were analysed using Excel fit software. IC50 values were determined in duplicate.

The structures appear in SMILES notation. pIC50: −log10 of the molar value.

Consider `O=C(CCc1nc2cccnc2n1Cc1ccc(OC(F)(F)F)cc1)NC[C@H](O)c1ccccc1` [Example 37, N-((R)-2-Hydroxy-2-phenyl-ethyl)-3-[3-(4-trifluoromethoxy-benzyl)-3H-imidazo[4,5-b]pyridin-2-yl]-propionamide], for which the pIC50 was 8.15. Consider `Cc1cnc2c(c1)nc(CCC(=O)N[C@@H](C)c1ccc(N[C@H]3CCNC3)cc1)n2Cc1ccc(OC(F)(F)F)cc1` [Example 189, 3-[6-Methyl-3-(4-trifluoromethoxy-benzyl)-3H-imidazo[4,5-b]pyridin-2-yl]-N-{(S)-1-[4-((S)-pyrrolidin-3-ylamino)-phenyl]-ethyl}-propionamide], for which the pIC50 is 7.80. The same measure for `Cc1cnc2c(c1)nc(CCC(=O)NCc1ccc(OCCCN(C)C)cc1)n2Cc1ccc(OC(F)(F)F)cc1` [Example 26, N-[4-(3-Dimethylamino-propoxy)-benzyl]-3-[6-methyl-3-(4-trifluoromethoxy-benzyl)-3H-imidazo[4,5-b]pyridin-2-yl]-propionamide]: 8.40; for `NC[C@H](NC(=O)CCc1nc2cccnc2n1Cc1ccc(OC(F)(F)F)cc1)c1ccccc1` [Example 210, N—((R)-2-amino-1-phenyl-ethyl)-3-[3-(4-trifluoromethoxy-benzyl)-3H-imidazo[4,5-b]pyridin-2-yl]-propionamide]: 8.52. In the case of `COc1ccc([C@H](C)NC(=O)CCc2nc3cc(C)cnc3n2Cc2ccc(OC(F)(F)F)cc2)cc1` [Example 212, N-[(S)-1-(4-Methoxy-phenyl)-ethyl]-3-[6-methyl-3-(4-trifluoromethoxy-benzyl)-3H-imidazo[4,5-b]pyridin-2-yl]-propionamide], the pIC50 is 8.15. For `O=C(CCc1nc2cccnc2n1Cc1ccc(F)cc1)N[C@H](CO)c1ccccc1` [Example 64, 3-[3-(4-Fluoro-benzyl)-3H-imidazo[4,5-b]pyridin-2-yl]-N-((S)-2-hydroxy-1-phenyl-ethyl)-propionamide], the pIC50 was 6.84. Under `C[C@H](NC(=O)NCc1nc2cccnc2n1Cc1ccc(F)cc1)c1ccccc1` [Example 161, 1-[3-(4-fluoro-benzyl)-3H-imidazo[4,5-b]pyridin-2-ylmethyl]-3-((S)-1-phenyl-ethyl)-urea] stands 6.94; under `O=C(CCc1nc2cccnc2n1Cc1ccc(OC(F)(F)F)cc1)Nc1nncs1` [Example 73, N-[1,3,4]Thiadiazol-2-yl-3-[3-(4-trifluoromethoxy-benzyl)-3H-imidazo[4,5-b]pyridin-2-yl]-propionamide], 6.57. Under `C[C@H](NC(=O)CCc1nc2cccnc2n1Cc1ccc(F)c(F)c1)c1ccc(Br)cc1` [Example 17, N-[(S)-1-(4-Bromo-phenyl)-ethyl]-3-[3-(3,4-difluoro-benzyl)-3H-imidazo[4,5-b]pyridin-2-yl]-propionamide] stands 8.52. The same measure for `C[C@H](NC(=O)CCc1nc2cccnc2n1Cc1ccc(OC(F)(F)F)cc1)[C@H](O)c1ccccc1` [Example 41, N-((1S,2R)-2-Hydroxy-1-methyl-2-phenyl-ethyl)-3-[3-(4-trifluoromethoxy-benzyl)-3H-imidazo[4,5-b]pyridin-2-yl]-propionamide]: 8.00; for `C[C@H](NC(=O)CCc1nc2cccnc2n1Cc1ccc(OC(F)(F)F)cc1)c1ccc(N[C@H]2CCNC2)cc1` [Example 175, N-{(S)-1-[4-((S)-Pyrrolidin-3-ylamino)-phenyl]-ethyl}-3-[3-(4-trifluoromethoxy-benzyl)-3H-imidazo[4,5-b]pyridin-2-yl]-propionamide]: 8.52; for `CN(C)c1ccc(CNC(=O)CCc2nc3cccnc3n2Cc2ccc(F)c(F)c2)cc1` [Example 63, 3-[3-(3,4-Difluoro-benzyl)-3H-imidazo[4,5-b]pyridin-2-yl]-N-(4-dimethylamino-benzyl)-propionamide]: 6.86.

In the case of `COc1ccc(Cn2c(CCC(=O)NC(C)C)nc3cccnc32)cc1` [Example 113, N-Isopropyl-3-[3-(4-methoxy-benzyl)-3H-imidazo[4,5-b]pyridin-2-yl]-propionamide], the pIC50 is 5.82. `C[C@@H](c1ccc(F)cc1)n1c(CCC(=O)N[C@H](Cc2ccccc2)C(=O)O)nc2cccnc21` [Example 201, (R)-2-(3-{3-[(S)-1-(4-Fluoro-phenyl)-ethyl]-3H-imidazo[4,5-b]pyridin-2-yl}-propionylamino)-3-phenyl-propionic acid]: the pIC50 was 6.22. The same measure for `C[C@H](NC(=O)CSc1nc2cccnc2n1Cc1ccc(OC(F)(F)F)cc1)c1ccc(Cl)cc1` [Example 144, N-[(S)-1-(4-Chloro-phenyl)-ethyl]-2-[3-(4-trifluoromethoxy-benzyl)-3H-imidazo[4,5-b]pyridin-2-ylsulfanyl]-acetamide]: 8.70. As to `O=C(CCc1nc2cccnc2n1Cc1ccc(OC(F)(F)F)cc1)N[C@@H](CO)Cc1ccccc1` [Example 203, N—((R)-1-Hydroxymethyl-2-phenyl-ethyl)-3-[3-(4-trifluoromethoxy-benzyl)-3H-imidazo[4,5-b]pyridin-2-yl]-propionamide], the pIC50 was 8.70. Turning to `Cc1ccc([C@H](C)NC(=O)CCc2nc3cccnc3n2Cc2ccc(F)c(F)c2)cc1` [Example 85, 3-[3-(3,4-Difluoro-benzyl)-3H-imidazo[4,5-b]pyridin-2-yl]-N-((S)-1-p-tolyl-ethyl)-propionamide], the pIC50 was 8.40.

`O=C(COc1nc2cccnc2n1Cc1ccc(OC(F)(F)F)cc1)N[C@@H](CO)c1ccccc1` [Example 151, N-((R)-2-Hydroxy-1-phenyl-ethyl)-2-[3-(4-trifluoromethoxy-benzyl)-3H-imidazo[4,5-b]pyridin-2-yloxy]-acetamide]: the pIC50 was 8.52.

In the case of `C[C@H](NC(=O)CCc1nc2cccnc2n1Cc1ccc(F)c(F)c1)c1ccc(F)cc1` [Example 95, 3-[3-(3,4-Difluoro-benzyl)-3H-imidazo[4,5-b]pyridin-2-yl]-N-[(S)-1-(4-fluoro-phenyl)-ethyl]-propionamide], the pIC50 is 7.59. The same measure for `COc1ccc(CNC(=O)CCc2nc3cc(C)cnc3n2Cc2ccc(OC(F)(F)F)cc2)cc1` [Example 53, N-(4-Methoxy-benzyl)-3-[6-methyl-3-(4-trifluoromethoxy-benzyl)-3H-imidazo[4,5-b]pyridin-2-yl]-propionamide]: 7.42; for `C[C@@H]1CN(c2ccc([C@H](C)NC(=O)CCc3nc4cccnc4n3Cc3ccc(F)c(F)c3)cc2)CCN1` [Example 188, 3-[3-(3,4-Difluoro-benzyl)-3H-imidazo[4,5-b]pyridin-2-yl]-N-{(S)-1-[4-((R)-3-methyl-piperazin-1-yl)-phenyl]-ethyl}-propionamide]: 7.82. Under `CC(C)(C)OC(=O)N1CCC(CNC(=O)CCc2nc3ccncc3n2Cc2ccc(OC(F)(F)F)cc2)CC1` [Example 135, 4-({3-[3-(4-Trifluoromethoxy-benzyl)-3H-imidazo[4,5-c]pyridin-2-yl]-propionylamino}-methyl)-piperidine-1-carboxylic acid tert-butyl ester] stands 5.80. The same measure for `O=C(CCc1nc2cccnc2n1Cc1ccc(OC(F)(F)F)cc1)N[C@@H](C(=O)O)C1CCCCC1` [Example 194, (R)-cyclohexyl-{3-[3-(4-trifluoromethoxy-benzyl)-3H-imidazo[4,5-b]pyridin-2-yl]-propionylamino}-acetic Acid]: 9.00.
